{"source": "patent US5637582A", "about": "“Peripheral circulation improving agent” (priority 1992, dated 1997)", "key": {"femoral artery [1]": {"tested_on": "femoral artery", "experiment": "Increase in femoral arterial blood flow in anesthetized dogs, cumulative i.v. dosing (Experimental Example 1)", "format": "in vivo, dog", "conditions": "60 min after administration", "experimental": "(§1) Adult dogs (one group consisting of a dog) were intravenously given the test compound under anesthesia and artificial respiration successively at intervals of 60 minutes so that the dose can be 10, 30, 100 and 300 μg/kg body weight, and the blood flow of femoral artery was measured with a time course. […] An increase in the femoral arterial blood flow was calculated by subtracting the blood flow before the administration of the first dose of test compound as the standard value (the base line) from that 60 minutes after each administration."}, "[2]": {"tested_on": "right anterior tibial muscle", "experiment": "Abdominal aorta knot-anterior tibial muscle contraction model: model of Buerger's disease (Experimental Example 6)", "format": "in vivo, rat", "set-up": "Change in contraction of the right anterior tibial muscle: unit not given here", "conditions": "10 mg/kg/day p.o. 2 weeks", "experimental": "(Abdominal aorta knot-anterior tibial muscle contraction model: Model of Buerger's disease)\nRats were previously divided into four groups (Group I: sham operation+5 ml/kg/day of distilled water, Group II: sham operation+10 mg/kg/day of the test compound A, Group III: abdominal aorta knot+5 ml/kg/day of distilled water, and Group IV: abdominal aorta knot+10 mg/kg/day of the test compound A), and operated under anesthesia, 10 mg/kg/day of the test compound A or 5 ml/kg/day of distilled water was orally administered to respective rats, to which an abdominal aorta was knotted or a sham operation was applied, for 2 weeks. Thereafter, a catheter was inserted into a trachea to secure airway under anesthesia. A skin at the right hind leg was cut to expose a muscle and a right anterior tibial muscle was isolated. After the operation, at the time that the state became stable, 10 mg/kg of the test compound A or 1 ml/kg of 0.25% CMC was administered into a duodenum. After 60 minutes from the administration, a tendon of the right anterior tibial muscle was connected with a transducer and the right anterior tibial muscle was directly stimulated electrically with platinum electrodes at 0.5 Hz to obtain a Force-Current curve. Then, electrical stimulation was carried out with a current which submaximally contracted the right anterior tibial muscle and a stimulation frequency of 1.5 Hz for 30 minutes to observe the progress. […]"}, "vertebral artery": {"tested_on": "vertebral artery", "experiment": "Change of vertebral arterial blood flow in anesthetized dogs (Experimental Example 4)", "conditions": "100 μg/kg i.v.", "protocol": "Each test compound was intravenously administered to adult dogs (one group consisting of 2 or 4 dogs) under anesthesia and artificial respiration at a dose of 100 μg/kg body weight. Femoral arterial blood flow, vertebral arterial blood flow and arterial blood pressure were measured 1, 3, 5, 10, 20 and 30 minutes after the administration. The femoral arterial blood flow and vertebral arterial blood flow were measured with an electromagnetic blood flowmeter (manufactured by Nihon Koden, MFV-2100, trade name) through a flow probe attached to the femoral artery or vertebral artery. The arterial blood pressure was measured with a pressure transducer (manufactured by Millar, MICRO-TIP, Model SPC-350) through a catheter attached to the brachial artery.\nChanges of the femoral arterial blood flow, vertebral arterial blood flow and arterial blood pressure were estimated by comparing the values measured before and after the administration of the test compound."}, "femoral artery [3]": {"tested_on": "femoral artery", "experiment": "Femoral arterial blood flow, hind leg cooling model of Raynaud's disease (Experimental Example 5)", "format": "in vivo, male SD rat", "experimental": "(Lower limbs peripheral circulation disorder model due to hind leg cooling: Model of Raynaud's disease)\nA catheter was inserted into left common carotid artery of a male SD rat (one group consisting of 5 rats) under anesthesia, and the arterial blood pressure was measured with a standard pressure transducer (manufactured by Nihon Koden. TP-200T, trade name) through a catheter attached to the artery. After isolating the left femoral artery from the peripheral connective tissue, a flow probe (HDP 10-20R: F 1.0 mm) of a Doppler blood flow meter (manufactured by Crystal Biotec Co., PD20, trade name) was attached thereto and was connected to the Doppler blood flow meter to measure the artery blood flow. After the operation, at the time that the state became stable, the left hind leg was exposed to a perfused solution at 10° C. to decrease the femoral arterial blood flow. After 30 minutes, 1 ml/kg of a 0.9% NaCl solution or 300 μg/kg of the test compound A was intravenously administered and the state was observed. In the case of Beraprost Na, continuous injection in an amount of […] was carried out after 30 minutes from cooling. The compounds to be used were each dissolved in a 0.9% NaCl solution.\nThe present model is disclosed, for example, in Nishio et al, \"Effect of Beraprost Sodium on Peripheral Circulatory Disturbances Induced by Various Stimuli\", Arzneim.-Forsch./Drug Res., 39 (II), Nr. 10 (1989), pp. 1229-1234. Note particularly the section \"2.4. Sphygmometry in rat hind paw\", at page 1230."}, "mouse": {"tested_on": "mouse", "experiment": "Acute oral toxicity in mouse", "format": "in vivo", "conditions": "1000 mg/kg oral, even after 2 days", "from_the_text": "Furthermore, a (-)-cis-1,5-benzothiazepine derivative according to formula (I) has low toxicity and can be used safely."}, "arterial blood pressure": {"tested_on": "arterial blood pressure", "set-up": "species or system male SD rat", "conditions": "rat, in vivo", "experimental": "(Lower limbs peripheral circulation disorder model due to hind leg cooling: Model of Raynaud's disease) […] TP-200T, trade name) through a catheter attached to the artery. […] After the operation, at the time that the state became stable, the left hind leg was exposed to a perfused solution at 10° C. to decrease the femoral arterial blood flow. […] In the case of Beraprost Na, continuous injection in an amount of […] was carried out after 30 minutes from cooling. […] The present model is disclosed, for example, in Nishio et al, \"Effect of Beraprost Sodium on Peripheral Circulatory Disturbances Induced by Various Stimuli\", Arzneim.-Forsch./Drug Res., 39 (II), Nr. 10 (1989), pp. 1229-1234. Note particularly the section \"2.4. Sphygmometry in rat hind paw\", at page 1230."}, "femoral artery [4]": {"tested_on": "femoral artery", "experiment": "Maximum increase in femoral arterial blood flow in anesthetized dogs, cumulative i.v. dosing (Experimental Example 3)", "format": "in vivo, dog", "conditions": "maximum during 60 min", "experimental": "as §1, with “consisting of 5 dogs) were intravenously” for “consisting of a dog) were intravenously”, “10, 30, 100, 300 and 1000” for “10, 30, 100 and 300”, “300 and 1000 μg/kg body” for “100 and 300 μg/kg body”, “from that of maximum during an interval of 60 minutes” for “from that 60 minutes”"}}, "data": [{"smiles": "CC(=O)O[C@@H]1C(=O)N(CCN(C)C)c2ccc(C)cc2S[C@@H]1c1ccc(C)cc1", "note": "[Compound A]", "values": [{"measurement": "Increase in femoral arterial blood flow", "setting": "femoral artery [1]; 10 μg/kg i.v.", "result": 13, "unit": "mL/min"}, {"measurement": "Increase in femoral arterial blood flow", "setting": "femoral artery [1]; 30 μg/kg i.v.", "result": 30, "unit": "mL/min"}, {"measurement": "Increase in femoral arterial blood flow", "setting": "femoral artery [1]; 100 μg/kg i.v.", "result": 34, "unit": "mL/min"}, {"measurement": "Increase in femoral arterial blood flow", "setting": "femoral artery [1]; 300 μg/kg i.v.", "result": 32, "unit": "mL/min"}, {"measurement": "Time (min) until 20A% contraction", "setting": "[2]; Group II: sham operation", "result": "16.65 ± 2.99", "unit": "min"}, {"measurement": "Change in contraction of the right anterior tibial muscle", "setting": "[2]; Group II: sham operation, 1 min", "result": 3.29}, {"measurement": "Change in contraction of the right anterior tibial muscle", "setting": "[2]; Group II: sham operation, 3 min", "result": 1.71}, {"measurement": "Change in contraction of the right anterior tibial muscle", "setting": "[2]; Group II: sham operation, 5 min", "result": -1.29}, {"measurement": "Change in contraction of the right anterior tibial muscle", "setting": "[2]; Group II: sham operation, 10 min", "result": -12.88}, {"measurement": "Change in contraction of the right anterior tibial muscle", "setting": "[2]; Group II: sham operation, 15 min", "result": -20.91}, {"measurement": "Change in contraction of the right anterior tibial muscle", "setting": "[2]; Group II: sham operation, 20 min", "result": -25.66}, {"measurement": "Change in contraction of the right anterior tibial muscle", "setting": "[2]; Group II: sham operation, 30 min", "result": -30.19}, {"measurement": "Time (min) until 20A% contraction", "setting": "[2]; Group IV: abdominal aorta knot", "result": "17.27 ± 3.70", "unit": "min"}, {"measurement": "Change in contraction of the right anterior tibial muscle", "setting": "[2]; Group IV: abdominal aorta knot, 1 min", "result": 2.44}, {"measurement": "Change in contraction of the right anterior tibial muscle", "setting": "[2]; Group IV: abdominal aorta knot, 3 min", "result": -1.04}, {"measurement": "Change in contraction of the right anterior tibial muscle", "setting": "[2]; Group IV: abdominal aorta knot, 5 min", "result": -4.35}, {"measurement": "Change in contraction of the right anterior tibial muscle", "setting": "[2]; Group IV: abdominal aorta knot, 10 min", "result": -15.46}, {"measurement": "Change in contraction of the right anterior tibial muscle", "setting": "[2]; Group IV: abdominal aorta knot, 15 min", "result": -21.82}, {"measurement": "Change in contraction of the right anterior tibial muscle", "setting": "[2]; Group IV: abdominal aorta knot, 20 min", "result": -25.98}, {"measurement": "Change in contraction of the right anterior tibial muscle", "setting": "[2]; Group IV: abdominal aorta knot, 30 min", "result": -30.17}, {"measurement": "Vertebral Arterial Blood Flow change (side effects)", "setting": "vertebral artery; 1 min", "result": "0.3 Δ ml/min"}, {"measurement": "Vertebral Arterial Blood Flow change (side effects)", "setting": "vertebral artery; 3 min", "result": "0.0 Δ ml/min"}, {"measurement": "Vertebral Arterial Blood Flow change (side effects)", "setting": "vertebral artery; 5 min", "result": "-0.5 Δ ml/min"}, {"measurement": "Vertebral Arterial Blood Flow change (side effects)", "setting": "vertebral artery; 10 min", "result": "-1.5 Δ ml/min"}, {"measurement": "Vertebral Arterial Blood Flow change (side effects)", "setting": "vertebral artery; 20 min", "result": "-2.8 Δ ml/min"}, {"measurement": "Vertebral Arterial Blood Flow change (side effects)", "setting": "vertebral artery; 30 min", "result": "-2.5 Δ ml/min"}, {"measurement": "effect on vertebral arterial blood flow", "setting": "vertebral artery; G and H: one minute after, in words", "result": "substantially no effect"}, {"measurement": "Femoral Arterial Blood Flow change", "setting": "femoral artery [3]; 0 min (before cooling and administration; 30 min = 0)", "result": "1.364 Δ ml/min"}, {"measurement": "Femoral Arterial Blood Flow change", "setting": "femoral artery [3]; 40 min, given at 30 min: A 300 μg/kg i.v., J 0.3 μg/kg/ml continuous injection", "result": "0.072 Δ ml/min"}, {"measurement": "Femoral Arterial Blood Flow change", "setting": "femoral artery [3]; 50 min, given at 30 min: A 300 μg/kg i.v., J 0.3 μg/kg/ml continuous injection", "result": "0.276 Δ ml/min"}, {"measurement": "Femoral Arterial Blood Flow change", "setting": "femoral artery [3]; 60 min, given at 30 min: A 300 μg/kg i.v., J 0.3 μg/kg/ml continuous injection", "result": "0.416 Δ ml/min"}, {"measurement": "Femoral Arterial Blood Flow change", "setting": "femoral artery [3]; 70 min, given at 30 min: A 300 μg/kg i.v., J 0.3 μg/kg/ml continuous injection", "result": "0.452 Δ ml/min"}, {"measurement": "Femoral Arterial Blood Flow change", "setting": "femoral artery [3]; 80 min, given at 30 min: A 300 μg/kg i.v., J 0.3 μg/kg/ml continuous injection", "result": "0.452 Δ ml/min"}, {"measurement": "Femoral Arterial Blood Flow change", "setting": "femoral artery [3]; 90 min, given at 30 min: A 300 μg/kg i.v., J 0.3 μg/kg/ml continuous injection", "result": "0.496 Δ ml/min"}, {"measurement": "lethal toxicity", "setting": "mouse", "result": "no lethal toxicity was observed"}, {"measurement": "Mean Arterial Pressure change", "setting": "arterial blood pressure", "result": "0.00 Δ mmHg"}, {"measurement": "Increase in femoral arterial blood flow", "setting": "femoral artery [4]; 10 μg/kg i.v.", "result": 5.6, "unit": "mL/min"}, {"measurement": "Increase in femoral arterial blood flow", "setting": "femoral artery [4]; 30 μg/kg i.v.", "result": 40.4, "unit": "mL/min"}, {"measurement": "Increase in femoral arterial blood flow", "setting": "femoral artery [4]; 100 μg/kg i.v.", "result": 55.2, "unit": "mL/min"}, {"measurement": "Increase in femoral arterial blood flow", "setting": "femoral artery [4]; 300 μg/kg i.v.", "result": 61.4, "unit": "mL/min"}]}]}
